Patent publication US5428061A, “Organic nitrates and method for their preparation” (Schwarz Pharma AG, priority 1988, dated 1995)
Read-outs that look alike come from different tables or passages of the source.

Tests used:
[1] = system: circulatory parameters of a dog that is awake; assay: Action of organic nitrates on circulatory parameters of the awake dog after intravenous or oral administration; assay type: in vivo; details: awake beagle dogs
Experimental: Administration of new organic nitrates to detect the nitrate action on the circulatory parameters of a dog that is awake.
The purpose of the test is to determine how the new organic nitrates act on various circulatory parameters of a dog that is awake after intravenous or oral administration. All experiments were carried out on trained beagle dogs; the circulatory parameters were measured with an arterial catheter tip manometer and a balloon catheter introduced into the V. jugularis. In order to describe the action on the arterial system, the systolic, mean and diastolic blood pressure (BP) and heart rate (HR) were measured. […] The low pressure system was measured through the central venous pressure (CVP) and the pulmonary arterial pressure (PAP). The control or reference product used was isosorbid-5-mononitrate (ISM-5).

[2] = system: guinea pig heart; assay: Coronary flow in working heart model (guinea pig heart); details: for EC25: Cavia porcellus, read-out: concentration for a coronary flow increase of 25%
Experimental: Finally, the action of N-(3-nitratopivaloyl)-cysteine ethyl ester (Nitrato-Piv-Cy-Et) was characterized on guinea pig heart. […] A flow increase of 25% is achieved even with 380 μg of nitrato-Piv-Cy-Et per liter of perfusion medium, corresponding to 1.3 μmole per liter. The corresponding concentration for glycerol trinitrate (GTN) with 5 mg/liter is at least a factor of 12 times higher. Thus, in the case of Nitrato-Piv-Cy-Et we are dealing with an especially active compound with regard to the vessels.

[3] = target: T1, isolated guanyl cyclase (Homo sapiens, UniProt Q02153); assay: Activation of isolated guanyl cyclase (cGMP formation); assay type: biochemical; details: isolated enzyme; for EC50: read-out: concentration necessary for one-half of the maximum activity (ED50) of guanyl cyclase
T1 sequence (Q02153 1-619): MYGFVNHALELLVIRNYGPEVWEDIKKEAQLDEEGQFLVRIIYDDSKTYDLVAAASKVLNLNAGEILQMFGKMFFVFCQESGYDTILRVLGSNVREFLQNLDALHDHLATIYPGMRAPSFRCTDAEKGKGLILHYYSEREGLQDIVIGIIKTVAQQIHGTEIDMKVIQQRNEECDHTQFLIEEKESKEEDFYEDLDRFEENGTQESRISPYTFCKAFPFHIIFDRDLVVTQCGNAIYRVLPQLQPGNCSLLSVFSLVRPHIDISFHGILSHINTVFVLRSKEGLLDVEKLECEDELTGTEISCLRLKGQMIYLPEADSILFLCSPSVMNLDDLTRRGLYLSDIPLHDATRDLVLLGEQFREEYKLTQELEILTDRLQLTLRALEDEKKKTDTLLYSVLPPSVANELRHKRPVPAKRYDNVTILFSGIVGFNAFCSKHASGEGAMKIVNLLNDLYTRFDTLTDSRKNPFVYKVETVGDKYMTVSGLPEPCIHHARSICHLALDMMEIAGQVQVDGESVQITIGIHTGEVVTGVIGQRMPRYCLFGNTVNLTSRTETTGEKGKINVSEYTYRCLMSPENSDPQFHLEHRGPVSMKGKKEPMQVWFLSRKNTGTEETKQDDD
T1 sequence (Q02108 1-690 partner): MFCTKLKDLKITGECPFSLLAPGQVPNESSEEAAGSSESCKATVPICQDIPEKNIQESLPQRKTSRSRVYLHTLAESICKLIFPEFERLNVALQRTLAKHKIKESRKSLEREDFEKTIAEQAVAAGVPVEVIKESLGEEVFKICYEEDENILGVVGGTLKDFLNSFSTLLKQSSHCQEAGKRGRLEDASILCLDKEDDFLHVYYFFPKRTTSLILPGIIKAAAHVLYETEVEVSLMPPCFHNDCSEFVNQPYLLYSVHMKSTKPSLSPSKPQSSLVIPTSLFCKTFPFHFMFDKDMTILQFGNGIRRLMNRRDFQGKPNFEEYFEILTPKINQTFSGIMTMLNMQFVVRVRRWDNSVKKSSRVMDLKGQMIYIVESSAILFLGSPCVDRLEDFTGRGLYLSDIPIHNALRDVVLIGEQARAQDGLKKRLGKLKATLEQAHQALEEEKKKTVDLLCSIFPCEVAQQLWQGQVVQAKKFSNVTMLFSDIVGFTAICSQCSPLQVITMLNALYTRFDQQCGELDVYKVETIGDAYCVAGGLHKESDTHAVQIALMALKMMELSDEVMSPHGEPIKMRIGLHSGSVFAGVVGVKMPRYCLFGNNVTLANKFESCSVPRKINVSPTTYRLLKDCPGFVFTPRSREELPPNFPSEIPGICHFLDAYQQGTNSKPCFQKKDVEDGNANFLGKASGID
Text: The concentration necessary for one-half of the maximum activity (ED50) of guanyl cyclase is around 200 μmole/liter. The corresponding value for GTN (in the presence of 5 mmoles/liter of cysteine) is approximately 80 μmoles/liter.

[4] = system: isolated perfused rat heart; assay: Coronary flow increase and tolerance in isolated perfused working rat heart; details: for Activity Drop in flow / Maximum Coronary Increase: 100 μM, isolated perfused rat hearts, n = 7; for Maximum Coronary Increase: x ± SEM
Text: Determining the lack of tolerance to the action of new organic nitrates on increasing coronary flow in isolated perfused heart.
The purpose of the present investigation was to study the action and the development of tolerance to new organic nitrate compounds on isolated perfused rat heart. For this purpose, a rat heart was isolated and prepared as a "working heart".
In this experimental arrangement, the heart performs defined circulatory work from which a defined oxygen consumption and coronary flow result. The action of nitrate-like compounds can be measured in this model by the drug-induced coronary flow increase.
The resistance of the coronary vessels on an isolated working rat heart was chosen as the parameter for the detection of the action of the nitrate. A rat heart with a weight of about one gram is perfused through the left auricle with a plasma-like solution which contains nutrients and is saturated with oxygen. The left ventricle pumps the solution into the aorta against a defined pressure. Corresponding to the physiological conditions, a part of this solution flows through the coronary vessels for supplying the heart itself. At a defined work of the heart, this fraction, from which the coronary resistance can be calculated, is constant. The addition of a nitrate or other coronary dilating drug causes a drop in this coronary resistance. Therefore, if a constant concentration of an organic nitrate is introduced to the heart, then, after an initial decrease of the resistance, a partial loss of activity occurs within 20 minutes. On this model, the substances also show a coronary dilating effect, but this is not followed by a loss in activity. The maximum drop of the coronary resistance is still completely present after 60 minutes. The tested compounds were compared in an equimolar dosage with 10^-4 M nitroglycerin trinitrate. Continuous infusion of nitroglycerin causes a rapid coronary flow increase by 7.6±1.88 ml/min gww (x±SD). […] Upon further perfusion, the action of nitroglycerin is unchanged. In this experimental model, the new nitrates also show a coronary flow increase, but this is followed by only a very slight drop in the activity.

[5] = oral and intravenous administration
[6] = working heart model, guinea pig
[7] = continuous infusion, 10^-4 M, isolated working rat heart

## O=[N+]([O-])O[C@@H]1CO[C@H]2[C@@H]1OC[C@@H]2O [ISM-5, isosorbid-5-mononitrate]
[1]; [5]
  extensibility of the air chamber: increased significantly
  low pressure system pressure: decreased
  mean pressure: hardly effected
  systolic blood pressure: slight decrease

## CCOC(=O)[C@H](CS)NC(=O)C(C)(C)CO[N+](=O)[O-] [N-(3-nitratopivaloyl)-cysteine ethyl ester]
[1]
  bioavailability (comparison between intravenous and oral administration): good bioavailability
  course of action on circulatory parameters: typical of a nitrate
[2]; working heart model, guinea pig, converted from μg per liter
  EC25: 1.3 µM
[2]; working heart model, guinea pig, per liter of perfusion medium
  EC25: 0.38 µg/mL
[2]; one hour drenching perfusion, any dose, guinea pig heart
  weakening of the coronary dilating effect (tolerance development): No weakening of the coronary dilating effect
[2]; working heart model, guinea pig, very low dose range
  effect on coronary flow: concentration-dependent increase of the coronary flow
[3]
  activation of guanyl cyclase (formation of cGMP per unit time): concentration-dependent activation of the enzyme
  EC50: ~200 µM
[3]; in vitro, absence of cysteine
  activation of guanyl cyclase without cysteine: activation occurs in vitro even in the absence of cysteine
[4]
  Activity Drop in flow: 5.2%
  Maximum Coronary Increase: 6.6 ± 0.88 ml/min gww

## CCOC(=O)[C@H](CCSC)NC(=O)C(C)(C)CO[N+](=O)[O-] [N-(3-nitratopivaloyl)-methionine ethyl ester]
[1]
  bioavailability (comparison between intravenous and oral administration): good bioavailability
[4]
  Activity Drop in flow: 7.0%
  Maximum Coronary Increase: 8.3 ± 0.92 ml/min gww

## O=[N+]([O-])OCC(CO[N+](=O)[O-])O[N+](=O)[O-] [nitroglycerine, glycerol trinitrate, reference compound]
[2]; [6]
  EC25: 5 µg/mL
  factor by which the concentration for 25% flow increase is higher than for Nitrato-Piv-Cy-Et: ≥ 12 times
[3]; in the presence of 5 mmoles/liter of cysteine
  EC50: ~80 µM
[4]
  Activity Drop in flow: 56.0%
  Maximum Coronary Increase: 7.6 ± 0.71 ml/min gww
[4]; [7]
  coronary flow increase (x±SD): 7.6±1.88 ml/min gww
  decrease of flow within 20 minutes: 55.9%
